# Reference: patent US11331290B2, “Niclosamide for the treatment of cancer metastasis” (Max-Delbrück-Centrum für Molekulare Medizin in der …, priority 2011, dated 2022)
# Tested on: HCT116-CMVp-LUC cells
# Assay: HCT116-CMVp-LUC intrasplenic xenograft: liver metastasis, tumor growth, overall survival
# Type: in vivo, mice
# Settings: for median survival: control 24 days
# Procedure: All experiments were performed in accordance with the UKCCCR guidelines and approved by the responsible local authorities (State Office of Health and Social Affairs, Berlin, Germany). HCT116-CMVp-LUC cells (3×10^6 cells per mouse, resuspended in 50 μL PBS) were intrasplenically transplanted into 6-week-old female nonobese diabetic-severe combined immunodeficiency (NOD-SCID) mice. Mice were randomly assigned to 3 groups and reatment of mice started 24 hours after cell transplantation. Mice of the control group (n=9) were treated with daily doses of solvent. Mice of the second group (n=9) were daily treated intraperitoneally with 20 mg per kg niclosamide. Mice of the third group (n=9) were treated intraperitoneally with two doses of 15 mg per kg niclosamide per day. The experimental endpoint was reached when mice appeared moribund and/or the spleen tumor was palpable. This was the case with the majority of control mice on day 24. For long-term in vivo experiments mice randomly assigned to 3 groups. Mice of the control group (n=6) were treated intraperitoneally with daily doses of solvent. Mice of the second group (n=6) were daily treated intraperitoneally with 20 mg per kg niclosamide. Mice of the third group (n=6) were daily treated intraperitoneally for 24 days with 20 mg per kg niclosamide and for the residual days with solvent. Mice were killed by cervical dislocation when tumor reached the maximum in accordance with the local authorities.
# Spleen (as the transplantation site) and liver (as a metastasis target organ) were removed. The amount of S100A4 mRNA in the tumor was determined by Trizol RNA isolation of tumor cryosections and quantitative real-time RT-PCR. The level of metastasis was evaluated by scoring. For each liver, a score was calculated as the sum of the volumes of the individual metastases. For each metastasis the formula [width2]×length was applied.
# For in vivo luminescence imaging mice were anesthetized with 35 mg per kg Hypnomidate (Jassen-Cilag, Neuss, Germany) and received intraperitoneally 150 mg per kg D-luciferin (Biosynth, Staad, Switzerland) dissolved in sterile PBS. Imaging was performed with the NightOWL LB 981 system (Berthold Technologies, Bad Wildbad, Germany) with exposure times of 1 second and 20 seconds. ImageJ version 2.3 was used for color coding of signal intensity (presenting a 256 grayscale) and overlay pictures.
# All calculations and statistical analyses were performed with GraphPad Prism version 4.01. Student t test was used for comparison of only two groups. One-way analysis of variance (ANOVA) was applied for comparing the control group with several treated groups followed by Bonferroni post hoc multiple comparisons. In cell cytotoxicity assay the half-maximal effective concentration to which cell viability was reduced to 50% (EC50) values were calculated by sigmoidal dose-response curve fit of x=log(x) transformed data. Kaplan-Meier analysis was used to plot overall survival and differences in curves were analyzed by Logrank test. All tests were two-sided, and P values less than 0.05 were considered to be statistically significant. If not stated otherwise, means are reported with 95% confidence interval.
# (A) In vivo luminescence imaging of metastasis under niclosamide treatment. HCT116-CMVp-LUC cells stably expressing firefly luciferase (LUC) were intrasplenically transplanted into mice (per group n=4) followed by daily intraperitoneal treatment with 20 mg per kg niclosamide. For luminescence imaging, mice were anesthetized at the indicated days and received intraperitoneally D-luciferin. Exposure time for lateral and ventral imaging was 20 seconds per picture. In situ imaging and imaging of isolated organs was performed for 1 second per picture exposure time. Signal intensity of grayscale images (256 scale) were color coded (from low to high signal intensity: blue, green, yellow, red, white) and overlayed with bright field picture. […]
smiles,measurement,setting,value
"O=C(Nc1ccc([N+](=O)[O-])cc1Cl)c1cc(Cl)ccc1O [niclosamide, 2′,5-dichloro-4′-nitrosalicylanilide]","liver metastasis score, mean % of control","20 mg per kg daily intraperitoneally, 24 days",37.9%
same,"liver metastasis signal, in vivo luminescence imaging","20 mg per kg daily intraperitoneally, day 24",No or only tiny liver metastasis signals
same,size of liver metastases,"20 mg per kg i.p., continuously and discontinuously, vs solvent-treated animals",clearly reduced
same,spleen tumor growth,"20 mg per kg i.p., either continuously or discontinuously, vs solvent-treated mice",clearly delayed
same,"liver metastasis score, mean % of control","2×15 mg per kg per day intraperitoneally, 24 days",36.1%
same,"liver metastasis, mean difference control vs treatment",continuous treatment,89.1%
same,median survival ratio control vs treatment,continuous treatment,0.56
same,"liver metastasis score, mean % of control",continuous treatment (20 mg per kg i.p. daily),10.9%
same,median survival,continuous treatment: 20 mg per kg i.p. daily,43 days
same,"liver metastasis, mean difference control vs treatment",discontinuous treatment,65.1%
same,median survival ratio control vs treatment,discontinuous treatment,0.52
same,"liver metastasis score, mean % of control","discontinuous treatment (20 mg per kg i.p. for 24 days, then solvent)",34.9%
same,median survival,"discontinuous treatment: 20 mg per kg i.p. daily for 24 days, then solvent",46.5 days
